Reference: US10709707B2, “Methods of treating ocular conditions” (Oyster Point Pharma, Inc., priority 2016, dated 2020)
pEC50, pIC50, pKi: −log10 of the molar value. Where two headings read alike, the source gives them in different places.

Tests used:
[1] = Single dose pharmacokinetics, monkey; format: in vivo, Cyno monkey; conditions: plasma; for AUC(0-t): t = 168 h, read-out: AUC0-1; for AUC(0-inf): read-out: AUCinf, unchanged parent
Description: In a monkey study, [^14C]-Compound 1 was given at 10 mg/kg orally or 5 mg/kg by iv infusion. Oral bioavailability in this study was about 30%.

[2] = Distribution coefficient; format: physicochemical; conditions: pH 7.4
[3] = test system: arterial pressure, heart rate, ECG, body temperature; test: Cardiovascular safety, conscious telemetered monkeys po; format: in vivo, Monkey: Cynomologous; conditions: single oral doses 3, 10, 30 mg/kg
[4] = molecular target: human α4β2 (Homo sapiens, UniProt P17787+P43681); test: Receptor function α4β2, Ca++ flux; format: cell-based
Description: There are two types of α4β2-containing nAChR, depending on which subunit occupies the fifth subunit of the pentaineric complex. There is a high sensitivity subtype, (α4β2)2β2, and a low sensitivity subtype, (α4β2)2α4. Targacept used a rudimentary assay to encourage the expression of one subtype over the other based on incubation temperature.

[5] = molecular target: T1, α7 nicotinic acetylcholine receptor (Rattus norvegicus, UniProt Q05941); test: Receptor binding α7, inhibition of [3H]-MLA binding, rat brain membranes
T1 construct: from tissue; host or cells: rat brain membranes (per the earlier reading)

[6] = 13-week repeat-dose oral toxicity in Cynomolgus monkeys; format: in vivo, Cynomolgus monkey; conditions: for AUC / Cmax: plasma, po, at the NOAEL (30 mg/kg); for incidence of mild interstitial vacuolization in the heart: 60 mg/kg
Description: Compound 1 was given to Cynomolgus monkeys once daily for at least 13 weeks via oral gavage at doses of 10, 30, or 60 mg/kg/day. At the end of the dosing period, 2 monkeys per sex in the high-dose and control dose groups were selected for a recovery of 4 weeks. […] In the surviving monkeys at 60 mg/kg/day, clinical observations included emesis, decreased motor activity, body weight loss, slight increases in QT (up to +16%), QTcB (up to +9.2%), and QTcF (up to +11%) intervals that were associated with slight decreases in heart rate. These findings had resolved by the end of the 4-week recovery period. […] At 30 mg/kg, all animals had emesis, but they had fewer episodes of emesis than the animals dosed at 60 mg/kg. The dose of 30 mg/kg was well tolerated and was considered the NOAEL, Cmax and AUC increased less than proportionally at doses between 10 and 30 mg/kg.

[7] = molecular target: T2, a3b2 (Homo sapiens, UniProt P17787+P32297); test: Receptor function a3b2, Ca++ flux; format: cell-based
T2 construct: expressed in transfected cells

[8] = Clinical studies with oral formulation; format: in vivo
Excerpt: The drug substance for Compound 1 nasal spray was previously used in clinical trials as an oral formulation. […] Compound 1 is re-formulated as a nasal spray.

[9] = molecular target: remaining muscarinic subtypes; test: Follow-up dose response binding assay (CEREP)
[10] = clinical studies with oral Compound 1; format: in vivo, human
Description: The oral form of Compound 1-A, Compound 1, has been studied in several clinical trials. A total of 108 human subjects have received Compound 1: 69 healthy volunteers in Phase 1 studies, 23 subjects in a Phase 1b gastroparesis study, and 16 subjects with constipation predominant irritable bowel syndrome (IBS-C) in a Phase 2a study. Subjects were exposed to doses of Compound 1 ranging from 5 mg through and including 200 mg.

[11] = molecular target: T3, muscarinic M4 (Homo sapiens, UniProt P08173); test: Follow-up dose response binding assay (CEREP)
T3 construct: CEREP (contract laboratory, per the earlier reading)

[12] = molecular target: T4, human α7 (Homo sapiens, UniProt P36544); test: Receptor binding α7, recombinant human receptors in HEK cells; conditions: human α7 expressed in HEK cells
T4 construct: expressed in transfected cells; host or cells: HEK cells (per the earlier reading)

[13] = cynomolgus monkey, Cyno monkey, 5 mg/kg [14C]-Compound 1, 20-minute intravenous
[14] = cynomolgus monkey, Cyno monkey, 10 mg/kg [14C]-Compound 1, oral
[15] = a4b2 HS (high sensitivity), 29° C., Ca++ Flux
[16] = female, cynomolgus monkey, females
[17] = surviving monkeys, 60 mg/kg/day

T1 sequence (Q05941 23-502): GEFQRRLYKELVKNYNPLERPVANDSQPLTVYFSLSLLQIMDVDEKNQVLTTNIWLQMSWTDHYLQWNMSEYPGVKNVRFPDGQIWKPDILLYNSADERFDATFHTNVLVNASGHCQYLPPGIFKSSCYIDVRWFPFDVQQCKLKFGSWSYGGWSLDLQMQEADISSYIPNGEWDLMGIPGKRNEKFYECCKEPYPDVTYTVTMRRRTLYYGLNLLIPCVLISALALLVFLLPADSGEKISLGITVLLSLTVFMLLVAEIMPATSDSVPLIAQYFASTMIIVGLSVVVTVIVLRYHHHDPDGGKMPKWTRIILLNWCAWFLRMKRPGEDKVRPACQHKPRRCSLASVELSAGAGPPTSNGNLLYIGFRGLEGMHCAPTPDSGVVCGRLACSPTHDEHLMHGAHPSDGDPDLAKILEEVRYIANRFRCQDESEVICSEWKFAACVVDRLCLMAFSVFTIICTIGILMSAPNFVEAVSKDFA
T2 sequence (P32297 32-505): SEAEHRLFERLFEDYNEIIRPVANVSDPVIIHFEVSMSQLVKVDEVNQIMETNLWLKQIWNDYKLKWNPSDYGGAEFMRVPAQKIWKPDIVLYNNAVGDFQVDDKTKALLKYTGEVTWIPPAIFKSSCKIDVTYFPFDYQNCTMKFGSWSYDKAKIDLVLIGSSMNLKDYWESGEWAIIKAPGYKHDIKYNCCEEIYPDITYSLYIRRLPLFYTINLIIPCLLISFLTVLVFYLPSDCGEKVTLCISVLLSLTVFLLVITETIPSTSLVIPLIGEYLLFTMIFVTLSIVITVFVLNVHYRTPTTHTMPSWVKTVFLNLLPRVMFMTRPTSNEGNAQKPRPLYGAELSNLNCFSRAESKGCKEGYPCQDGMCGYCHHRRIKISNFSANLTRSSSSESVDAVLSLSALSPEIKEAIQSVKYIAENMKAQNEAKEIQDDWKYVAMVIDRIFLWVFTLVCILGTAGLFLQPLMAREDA
T2 sequence (P17787 26-502): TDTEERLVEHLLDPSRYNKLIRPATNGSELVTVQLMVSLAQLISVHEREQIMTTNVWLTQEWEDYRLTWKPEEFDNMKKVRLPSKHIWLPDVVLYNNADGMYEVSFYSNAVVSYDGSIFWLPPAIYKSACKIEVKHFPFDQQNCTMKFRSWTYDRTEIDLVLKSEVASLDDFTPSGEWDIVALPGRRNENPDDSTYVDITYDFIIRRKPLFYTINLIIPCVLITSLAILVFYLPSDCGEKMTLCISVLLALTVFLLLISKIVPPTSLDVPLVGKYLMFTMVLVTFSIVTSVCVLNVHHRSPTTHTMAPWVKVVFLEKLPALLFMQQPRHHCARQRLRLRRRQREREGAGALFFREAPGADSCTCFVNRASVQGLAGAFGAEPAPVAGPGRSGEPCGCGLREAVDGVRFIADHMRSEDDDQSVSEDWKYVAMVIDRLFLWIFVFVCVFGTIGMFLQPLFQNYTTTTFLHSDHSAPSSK
Sequence of human α4β2 (P43681 29-627 limits assumed): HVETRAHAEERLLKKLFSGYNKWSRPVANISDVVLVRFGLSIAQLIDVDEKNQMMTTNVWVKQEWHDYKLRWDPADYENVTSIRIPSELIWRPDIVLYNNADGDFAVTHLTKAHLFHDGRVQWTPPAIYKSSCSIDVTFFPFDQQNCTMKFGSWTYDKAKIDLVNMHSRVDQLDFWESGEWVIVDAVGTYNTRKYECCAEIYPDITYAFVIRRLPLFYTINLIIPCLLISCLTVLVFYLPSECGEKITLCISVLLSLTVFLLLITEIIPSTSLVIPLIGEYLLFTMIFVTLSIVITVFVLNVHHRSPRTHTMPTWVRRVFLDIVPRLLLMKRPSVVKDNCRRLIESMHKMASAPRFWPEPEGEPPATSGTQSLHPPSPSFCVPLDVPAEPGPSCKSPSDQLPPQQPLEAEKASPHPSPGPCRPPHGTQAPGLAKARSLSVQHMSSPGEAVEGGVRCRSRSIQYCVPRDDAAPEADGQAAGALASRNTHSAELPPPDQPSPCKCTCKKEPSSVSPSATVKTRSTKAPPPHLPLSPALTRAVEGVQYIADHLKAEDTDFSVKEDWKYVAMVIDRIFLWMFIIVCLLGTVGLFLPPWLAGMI
Sequence of human α4β2 (P17787 26-502): as the sequence (P17787 26-502) above
T4 sequence (P36544 23-502): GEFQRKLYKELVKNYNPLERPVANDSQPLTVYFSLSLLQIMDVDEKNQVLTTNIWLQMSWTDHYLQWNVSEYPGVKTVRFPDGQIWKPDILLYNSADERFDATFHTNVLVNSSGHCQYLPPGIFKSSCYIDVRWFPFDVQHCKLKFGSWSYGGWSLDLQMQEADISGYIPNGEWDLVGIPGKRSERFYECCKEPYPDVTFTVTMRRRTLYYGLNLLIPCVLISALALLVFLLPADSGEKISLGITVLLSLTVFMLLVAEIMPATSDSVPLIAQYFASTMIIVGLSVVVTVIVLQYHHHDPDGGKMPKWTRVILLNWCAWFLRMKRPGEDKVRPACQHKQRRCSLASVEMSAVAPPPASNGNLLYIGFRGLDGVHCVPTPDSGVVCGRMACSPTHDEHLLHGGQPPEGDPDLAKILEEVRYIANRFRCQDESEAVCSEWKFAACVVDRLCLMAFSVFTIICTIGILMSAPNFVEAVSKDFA
T3 sequence (P08173 whole entry): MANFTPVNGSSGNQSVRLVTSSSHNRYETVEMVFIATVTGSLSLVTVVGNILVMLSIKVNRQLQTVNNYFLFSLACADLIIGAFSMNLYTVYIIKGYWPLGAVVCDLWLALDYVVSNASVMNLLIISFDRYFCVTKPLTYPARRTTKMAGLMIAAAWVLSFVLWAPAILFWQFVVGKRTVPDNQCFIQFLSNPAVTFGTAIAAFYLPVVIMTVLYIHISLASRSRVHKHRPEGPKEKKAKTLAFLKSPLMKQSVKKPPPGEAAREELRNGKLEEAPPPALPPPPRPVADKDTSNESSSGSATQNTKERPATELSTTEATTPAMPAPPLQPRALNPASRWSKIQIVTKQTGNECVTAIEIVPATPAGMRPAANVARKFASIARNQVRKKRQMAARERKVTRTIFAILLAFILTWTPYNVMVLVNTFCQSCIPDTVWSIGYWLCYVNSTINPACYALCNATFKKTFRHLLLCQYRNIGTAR

For C(=C\[C@H]1CCNC1)/c1cncnc1 [Compound 1, (R)-5-((E)-2-pyrrolidin-3-ylvinyl)pyrimidine], the Tmax [1, 13] was 0.333 h, the AUC(0-t) [1, 13] was 1530 ng·h/mL and the half-life ([1]; cynomolgus monkey, Cyno monkey, 5 mg/kg [14C]-Compound 1, 20-minute intravenous, read-out: t1/2 (converted)) was 2.1 h. It also gave a Tmax [1, 14] of 2.25 h, an AUC(0-t) [1, 14] of 942 ng·h/mL and a bioavailability ([1]; cynomolgus monkey, Cyno monkey, 10 mg/kg [14C]-Compound 1, oral, read-out: F (oral bioavailability)) of 31.1%. For the same compound, the half-life ([1]; cynomolgus monkey, Cyno monkey, 10 mg/kg [14C]-Compound 1, oral, read-out: t1/2 (converted)) was 1.9 h, the AUC(0-inf) ([1]; cynomolgus, 5 mg/kg iv infusion) was 1530 ng·h/mL and the Cmax ([1]; cynomolgus, Cyno monkey, 5 mg/kg [14C]-Compound 1, 20-minute intravenous) was 2030 ng/mL. The Cmax ([1]; cynomolgus, Cyno monkey, 10 mg/kg [14C]-Compound 1, oral) was 254 ng/mL, the bioavailability ([1]; cynomolgus, oral, [14C]-Compound 1, 10 mg/kg orally vs 5 mg/kg iv infusion, read-out: Oral bioavailability) was ~30% and the AUC(0-inf) ([1]; cynomolgus, po, 10 mg/kg orally) was 969 ng·h/mL. The half-life ([1]; cynomolgus, po, 10 mg/kg orally, read-out: half-life, unchanged parent (converted)) was 1.9 h, the logD [2] was < 1 and the “arterial pressure, heart rate, ECG parameters, body temperature” value [3] was “no noteworthy changes”. For the same compound, the “arterial pressure, heart rate, ECG parameters, body temperature” value ([3]; listed as TC6499) was “monkeys did not induce notable effects”, the pEC50 ([4]; Ca++ flux, SH-EP1 cells expressing human α4β2) was 5.28 and the Emax ([4]; Ca++ flux, SH-EP1 cells expressing human α4β2, read-out: Emax) was 120%. The pEC50 ([4]; Human a4b2, Ca++ Flux) was 5.28, the “(Imax)” value ([4]; a4b2 HS 29° C., Ca++ Flux) was 98 and the pEC50 [4, 15] was 5.48. For the same compound, the pIC50 [4, 15] was 6.37, the DC50 ([4]; a4b2 LS 37° C., Ca++ Flux) was 0.45 µM and the Dmax ([4]; a4b2 LS 37° C., Ca++ Flux) was 98%. It also gave a pEC50 ([4]; a4b2 LS (low sensitivity), 37° C., Ca++ Flux) of 5.28, an Emax ([4]; high sensitivity subtype (α4β2)2β2, read-out: Emax) of 120% and a pEC50 ([4]; human α4β2-containing nAChR) of 6.22. The pIC50 ([4]; low sensitivity subtype (LS)) was 6.35, the Emax ([4]; read-out: Emax compared to nicotine, human α4β2-containing nAChR) was 120% and the agonist type ([4]; α4β2 nicotine receptor subtype) was “full agonist”. The pKi ([5]; Rat a7, assay and tissue type not given) was 5.46, the pKi ([5]; [3H]-MLA, rat brain hippocampal membranes) was 5.26 and the NOAEL at 13 weeks ([6]; both sexes, cynomolgus monkey, in vivo, Cynomolgus monkeys, oral gavage once daily, 13 weeks) was 30 mg/kg. For the same compound, the AUC [6, 16] was 2440 ng·h/mL, the Cmax [6, 16] was 696 ng/mL and the “incidence of mild interstitial vacuolization in the heart” value ([6]; females) was 2 of 3. For the same compound, the AUC ([6]; male, cynomolgus monkey, males) was 1670 ng·h/mL, the Cmax ([6]; male, cynomolgus monkey, males) was 382 ng/mL and the “incidence of mild interstitial vacuolization in the heart” value ([6]; males) was 1 of 2. The “body weight loss vs. Day 1 value” ([6]; one monkey at 60 mg/kg/day sacrificed during the fourth week) was −22%, the “increase in QT interval” value [6, 17] was “up to +16%” and the “increase in QTcB interval” value [6, 17] was “up to +9.2%”. For the same compound, the “increase in QTcF interval” value [6, 17] was “up to +11%”, the pEC50 ([7]; Human a3b2, Ca++ Flux) was 5.06 and the Emax ([7]; Human a3b2, Ca++ Flux) was 66%. The agonist type ([7]; α3β2 subtype) was “partial agonist”, the “efficacy in clinical studies” value [8] was “failed to reach efficacy endpoints” and the “safety in clinical studies” value [8] was “considered safe”. The pKi [9] was < 5.00, the “changes in physical exam, blood or urine laboratory measurements or ECG measurements” value ([10]; 108 human subjects, oral doses 5 mg to 200 mg) was “No clinical noteworthy changes” and the adverse events reported ([10]; all studies, oral doses 5 mg to 200 mg) was “typically GI-related”. The “changes in ECG measurements” value ([10]; clinical studies to date) was “no noteworthy changes”, the pKi [11] was 5.24 and the pKi [12] was 4.82.
